Source: patent US20250129054A1 (Terran Biosciences Inc., priority 2022, published 2025)

How the values were obtained:
[1] = system: rat elevated zero maze model of anxiety; assay: Rat elevated zero maze model of anxiety (% time on open areas, stretched attend postures); assay type: in vivo, Sprague-Dawley rats; conditions: for anxiogenic effect: across the doses tested, ip
From the text: The rat zero-maze model is a refined alternative to the plus-maze, the most widely used animal model of anxiety, and consists of an elevated annular platform, divided equally into four quadrants. Two opposite quadrants are enclosed by Perspex walls on both the inner and the outer edges of the platform, while the remaining two opposite quadrants are open being enclosed only by a Perspex “lip”. Animals will show a preference for the closed areas, and avoidance of the open sections is assumed to stem from a rodent's natural aversion to open, exposed spaces. The primary index of anxiety, which reflect changes in open arm preference, is the percentage of time spent on the open areas. A reduction in the amount of activity on the open areas is considered to reflect an increase in anxiety. Other, ethologically-based behaviours are also assessed as indices of anxiety. One of the most important is stretched attend postures (SAP) from closed to open quadrants. […] Shepherd, J K; et al., (1994) Behavioural and pharmacological validation of the elevated “zero-maze” as an animal model of anxiety. Psychopharmacol., 116:56-64.
Male Sprague-Dawley 200-250 g (Envigo UK) rats were used. Animals were group-housed (5 per cage; cage size: 40×40×20 cm) in a temperature-controlled environment (22±2° C.), under a 12 h light-dark cycle (lights on: 08:00 hours) for one week prior to testing. Food and water were freely available. Number of animals per group=5. Animals were moved into the experimental room 16-24 hours before testing.
The elevated 0-maze comprises a black Perspex annular platform (105 cm diameter, 10 cm width) elevated to 65 cm above ground level, divided equally into four quadrants. Two opposite quadrants are enclosed by clear red Perspex walls (27 cm high) on both the inner and outer edges of the platform, while the remaining two opposite quadrants are surrounded only by a Perspex “lip” (1 cm high) which serves as a tactile guide to animals on these open areas.
Subjects were weighed and tail marked before being injected. After a specified pre-treatment time, subjects were placed in a closed quadrant and a 5-min test period were recorded on videotape for subsequent analysis. The maze were cleaned with 5% methanol/water solution and dried thoroughly between test sessions. Behavioural measures comprise percentage time spent on the open areas (% TO) and frequency of stretched attend postures (SAP) from closed to open quadrants. Since the control groups were all treated identically with the same vehicle these were combined to increase power. The Chlordiazepoxide groups were also treated identically with the same dose so these were also combined to increase power. Animals are scored as being in the open area when all four paws were in an open quadrant and in the closed area only when all four paws have passed over the open-closed divide. All testing were carried out between 9.00 and 16.00 hours.
For each study, a 1-way ANOVA was conducted across vehicle, CDP, and drug treatment groups. Each group was compared to the vehicle group and a p-value for treatment determined by Fishers Least Significant Difference (LSD) test. This analysis was performed in GraphPad Prism (Version 9).
Intraperitoneal (IP): Racemic methylone HCl was formulated in Vehicle 1 (Saline) for injection to concentrations of 1, 3 and 6 mg/mL to provide doses of 5, 15 and 30 mg/kg when administered ip in 5 mL/kg dosing volumes.
Intraperitoneal (IP): S-methylone HCl was formulated in Vehicle 1 (Saline) for injection to concentrations of 0.5, 1, 1.5, 3 and 6 mg/mL to provide doses of 2.5, 5, 7.5, 15 and 30 mg/kg when administered ip in 5 mL/kg dosing volumes.
Intraperitoneal (IP): R-methylone HCl was formulated in Vehicle 1 (Saline) for injection to concentrations of 1, 3 and 6 mg/mL to provide doses of 5, 15 and 30 mg/kg when administered ip in 5 mL/kg dosing volumes. […]

[2] = system: post-traumatic stress disorder (PTSD); assay: Double-blind, randomized, placebo-controlled clinical trial of methylone-assisted psychotherapy in PTSD; assay type: in vivo, human; conditions: at Study Conclusion; for clinician-rated functional impairment score as measured by SDS / depression as measured by HAM-D: compared to placebo-treated controls; for change in CAPS-5 assessment: with psychotherapy, compared to the placebo group, PTSD participants
Description: A multicenter, randomized, double-blind, placebo-controlled trial is conducted to assess the efficacy and safety of methylone-assisted psychotherapy versus psychotherapy with placebo control in participants diagnosed with at least moderate post-traumatic stress disorder (PTSD).
This multicenter, randomized, double-blind, placebo-controlled trial is conducted at various sites in the United States with IRB approval from each study site. A flexible dose of methylone hydrochloride salt or placebo, followed by a supplemental half-dose unless contraindicated by patient's previous response or medical history, is also administered during the Treatment Period with psychotherapy in at least 3 blinded monthly Experimental Sessions. The Supplemental Dose extends the duration of drug effects on the participants during an Experimental Session. Methylone test groups are further subdivided into specific groups receiving only racemic methylone hydrochloride salt, S-methylone hydrochloride salt, or R-methylone hydrochloride salt. An optional Risk Evaluation and Mitigation Strategy (REMS) Protocol may be implemented for the racemic methylone, S-methylone, and placebo-groups. The Treatment Period lasts for approximately 12 weeks. During the Treatment Period, each Experimental Session is followed by three Intervening Sessions of non-drug psychotherapy. Each Experimental Session involves an overnight stay. The Primary Outcome measure, the change in Clinician Administered PTSD Scale for DSM-5 (CAPS-5), is determined by a blinded Independent Rater (IR) pool multiple times throughout the study. The study consists of separate periods for each participant. Initially, prospective participants undergo a Screening Period involving an initial eligibility assessment, a medical history intake, informed consent, and enrollment of eligible participants. Next, a Preparation Period is undertaken for enrolled participants involving medication tapering and clinical baseline assessments to confirm each participant meets enrollment criteria. As part of the Preparation Period, a detailed assessment of co-morbidities to PTSD is recorded. Participants may remain on prescribed courses of selective serotonin reuptake inhibitor (SSRI) or serotonin and norepinephrine reuptake inhibitor (SNRI) treatment. Dosages and/or frequency of administration of a prescribed SSRI or SNRI may be adjusted to fit within study parameters. Participants may be required to taper a prescribed course of medication in order to maintain eligibility within the study. The Treatment Period consists of three monthly Experimental Sessions and associated Intervening Sessions of integrative behavioral psychotherapy. The Treatment Period lasts approximately 12 weeks. Following the Treatment Period is a Follow-up Period and Study Conclusion. During the Follow-up Period and Study Conclusion, participants complete 4 weeks with no study visits, followed by a Study Conclusion visit.
This study compares the effects of three blinded Experimental Sessions of psychotherapy in combination with flexible doses of methylone or placebo administered as described below. Non-drug preparatory and intervening psychotherapy sessions are also included. Patient's weight is determined for dosage calculation. Initial dose is 100 mg unless this will result in a dosage of less than 1.5 mg/kg of patient weight. Initial dose thereby adjusted upward in 25 mg increments to deliver the lowest dose possible of at least 1.5 mg/kg of patient weight. Initial dose for Experimental Session 2 and 3 is cumulative dose calculated by adding the initial dose plus REMS protocol dose used the previous Experimental Session for each patient.
Randomization occurs prior to the initiation of Experimental Session 1. Each participant is provided the next randomized number in a sequence by a blinded study monitor. […]

[3] = 30 mg/kg ip, 30 min pretreatment, vs vehicle and chlordiazepoxide 6 mg/kg, male SD rats
[4] = specific (sufficient) doses ip, compared with chlordiazepoxide 6 mg/kg
[5] = dose response over 5, 15 and 30 mg/kg ip, male SD rats

SMILES	frequency of SAPs ([1]; 2.5 mg/kg and 5 mg/kg ip, male SD rats)	frequency of SAPs ([1]; 7.5 mg/kg, 15 mg/kg and 30 mg/kg ip, male SD rats)	frequency of SAPs [1, 3]	time spent in the open arms [1, 3]	anxiogenic effect ([1]; male SD rats)	frequency of SAPs [1, 4]	time in the open arms [1, 4]	time spent in the open arms ([1]; trend over 5 mg/kg, 7.5 mg/kg and 15 mg/kg ip, male SD rats)	daytime sleepiness as measured by ESS [2]	clinician-rated functional impairment score as measured by SDS [2]	depression as measured by HAM-D [2]	change in CAPS-5 assessment [2]	frequency of SAPs [1, 5]	time spent in the open arms [1, 5]
CN[C@@H](C)C(=O)c1ccc2c(c1)OCO2 [S-methylone]	dose dependent increase in SAPs	dose dependent decrease in SAPS	even more effective than chlordiazepoxide at reducing SAPs	the time in the open arms increased	show anxiogenic effects at lower doses	decreased the frequency of SAPs as effectively as the benzodiazepine chlordiazepoxide	increase time in the open arms	the time spent in the open arms decreased as the dose increased	significant improvement in lessening daytime sleepiness	significant improvement	significant improvement	significant mean reduction		
CN[C@H](C)C(=O)c1ccc2c(c1)OCO2 [R-methylone]			significantly decreasing SAPs to the same level as chlordiazepoxide	as effective as chlordiazepoxide	did not show any anxiogenic effect at any dose	decreased the frequency of SAPs as effectively as the benzodiazepine chlordiazepoxide	increase time in the open arms		significant improvement in lessening daytime sleepiness	significant improvement	significant improvement	significant mean reduction	dose dependent decrease in SAPs	dose dependent increase in time spent in the open arms
